# In US9556169B2, “Compounds and compositions for the treatment of parasitic diseases” (NOVARTIS AG, priority 2012, dated 2017):
# Like-named read-outs stand apart in the source and are kept apart here.
# What was measured:
# [1] = system: Plasmodium yoelii (17XNL) sporozoites; test: Liver stage P. yoelii sporozoite invasion assay in HepG2-A16-CD81EGFP cells; assay type: cell-based
# Text: Assay for Proliferation of Parasite in Infected Liver Cells
# Compounds of the invention can be assayed to measure their capacity to inhibit proliferation of parasites in liver cells. The proliferation is quantified by determine the number of infected cells by immunofluorescence.
# Due to the difficulty of successfully infecting immortalized human liver cell lines with the human malaria sporozoites (liver-stage parasite), rodent malaria sporozoites from Plasmodium yoelii (17XNL) and P. berghei (ANKA) are the preferred surrogate. Sporozoites are obtained from Anopheles stephensi mosquitoes supplied by the New York University Insectary, which ships the malaria-infected mosquitoes 10-13 days following the ingestion of an infective blood meal.
# A transgenic HepG2 cell line expressing the tetraspanin CD81 receptor (HepG2-A16-CD81^EGFP) is used to increase the infectivity rate of rodent-malaria sporozoites into human cells. HepG2-A16-CD81^EGFP cells are stably transformed to express a GFP-CD81 fusion protein. A continuous in vitro culture of this line was maintained at 37° C. in 4% CO2 in complete media (CM) which contains: DMEM (Invitrogen, Carlsbad, USA) supplemented with 10% FCS, 0.29 mg/ml glutamine, 100 units penicillin and 100 μg/ml streptomycin (SigmaAldrich, USA).
# Liver Stage P. yoelii Sporozoite Invasion Assay
# Twenty to twenty-six hours prior to sporozoite infection, 7.5×10^3 HepG2-A16-CD81^EGFP cells are seeded into 384-well plates (Aurora 384 IQ-EB black plates with clear bottoms; 50 μl of 1.5×10^5 cells/ml in CM). These plates are incubated at 37° C. with 4% CO2 overnight. Two hours prior to infection, 50 nl of compound dissolved in DMSO (0.1% final DMSO concentration per well) were transferred with a PinTool (GNF Systems) into the assay plates (10 μM final concentration). A 1:3 serial dilution of atovaquone (10 μM at the highest final concentration) and wells treated only with DMSO were used as positive and negative controls, respectively.
# Freshly dissected salivary glands from infected mosquitoes were homogenized in a glass tissue grinder, filtered twice through Nylon cell strainers (40 μm pore size, BD Falcon) and counted using a hemocytometer. The assay plate with HepG2-A16-CD81^EGFP cells and compound were then infected with 8×10^3 sporozoitesper well and the plates are subjected to a centrifugal force of 650×g to pellet the sporozoites onto the liver cell monolayer. The assay plate is incubated at 37° C. for 2 hours to permit sporozoite invasion, then the media is aspirated from the media plate, and replaced with 50 μl CM (containing a 5× concentration of penicillin/streptomycin; 500 units penicillin and 0.5 mg streptomycin per ml) per well. 50 nl of compound is re-introduced by PinTool and the assay plate incubated for 48 hours at 37° C. before quantification of infected cells by immunofluorescence.
# Atovaquone and uninfected wells were used as controls on each plate. Two replicate plates are tested for each assay.
# After fixing the cells by addition of 12.5 μl of 20% solution of paraformaldehyde (EMS, Hatfield, USA) to each assay well (4% final formaldehyde concentration), membranes were permeabilized with 0.5% Triton-X-100 (Thermo Fisher Scientific) and EEFs were stained using a mouse polyclonal serum raised against the Plasmodium yoelii heat shock protein 70 (PyHSP70), a DyLight 649 goat anti-mouse IgG, Fc(gamma) fragment specific secondary antibody (Jackson Immuno Research, Cat#115-495-071) and the Hoechst 33342 nucleic acid dye (Invitrogen, Carlsbad, USA). Stained EEFs were then quantified using the Opera Confocal High Content Screening System (Perkin Elmer, Waltham, USA). Images were collected using a 20× objective lens (20×/0.45 NA, LWD Plan Fluor, Olympus) at a binning of 2, using a 365 nm Xeon arc lamp illumination to detect the Hoechst-labeled nuclei and 635 nm laser line to excite DyLight649-labeled parasites. The image resolution yielded was approximately 0.66 μm/pixel (˜0.43 μm 2/pixel). […]
# [2] = system: P. falciparum (NF54 or 3D7 strain); test: P. falciparum proliferation assay in infected human blood cells (SYBR Green); assay type: cell-based; settings: Plasmodium falciparum
# In short: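 Asexual NF54 or 3D7 parasites in O+ human erythrocytes (final 2.5% hematocrit, 0.3% parasitemia) exposed to compound for 72 h at 37 °C under 93% N2/4% CO2/3% O2. Lysis with SYBR Green I overnight at rt; fluorescence (ex 425/em 530 nm) tracks parasite DNA, giving EC50.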
# [3] = read-out: EC50, P. yoelii Sporozoite Invasion Assay
# [4] = read-out: EC50, P. falciparum Proliferation Assay
# [5] = Erythrocyte, infected human erythrocytes, 72 hours, SYBR Green fluorescence, read-out: EC50 (nM), inhibitory efficacy in delaying P. falciparum proliferation in infected human blood cells
# [6] = values without * in Table 2, HepG2-A16-CD81EGFP liver cells, 48 hours, immunofluorescence, read-out: EC50 (nM), P. yoelii Sporozoite Invasion Assay
SMILES,"EC50 [1, 3] [nM]","EC50 [2, 4] [nM]","EC50 [2, 5] [nM]","EC50 [1, 6] [nM]"
"CN(C(=O)c1ccn2ncc(-c3ccc(C(F)(F)F)cc3)c2c1)c1ccc(C#N)cc1 [Example 1, N-(4-cyanophenyl)-N-methyl-3-(4-(trifluoromethyl)phenyl)pyrazolo[1,5-a]pyridine-5-carboxamide]",< 10,–,–,–
"CN(C(=O)c1ccn2ncc(-c3ccc(C(N)=O)cc3)c2c1)c1ccc(C#N)cc1 [Example 19, 3-(4-carbamoylphenyl)-N-(4-cyanophenyl)-N-methylpyrazolo[1,5-a]pyridine-5-carboxamide]",< 10,–,–,–
"CN(C(=O)c1ccn2ncc(-c3ccc(C(N)=O)cc3)c2c1)c1ccc(C#N)cn1 [Example 32, 3-(4-carbamoylphenyl)-N-(5-cyanopyridin-2-yl)-N-methylpyrazolo[1,5-a]pyridine-5-carboxamide]",< 10,< 5,–,–
"CNC(=O)c1ccc(-c2cnn3ccc(C(=O)N(C)c4ccc(C#N)cn4)cc23)cc1 [Example 75, N-(5-cyanopyridin-2-yl)-N-methyl-3-(4-(methylcarbamoyl)phenyl)pyrazolo[1,5-a]pyridine-5-carboxamide]",< 10,< 5,–,–
"CCN(C(=O)c1ccn2ncc(-c3ccc(C(=O)NC)cc3)c2c1)c1ccc(C#N)cn1 [Example 90, N-(5-Cyanopyridin-2-yl)-N-ethyl-3-(4-(methylcarbamoyl)phenyl)pyrazolo[1,5-a]pyridine-5-carboxamide]",–,–,8,39
"CNC(=O)c1ccc(-c2cnn3ccc(C(=O)N(c4ccc(C#N)cn4)C(C)C)cc23)cc1 [Example 91, N-(5-cyanopyridin-2-yl)-N-isopropyl-3-(4-(methylcarbamoyl)phenyl)pyrazolo[1,5-a]pyridine-5-carboxamide]",–,–,13,23
"CNC(=O)c1ccc(-c2cnn3ccc(C(=O)N(c4ccc(C#N)cn4)C4CC4)cc23)cc1 [Example 93, N-(5-Cyanopyridin-2-yl)-N-cyclopropyl-3-(4-(methylcarbamoyl)phenyl)pyrazolo[1,5-a]pyridine-5-carboxamide]",–,–,6,10
"CNC(=O)c1ccc(-c2cnn3ccc(C(=O)N(C)c4ccc(C#N)cc4)cc23)cn1 [Example 97, N-(4-Cyanophenyl)-N-methyl-3-(6-(methylcarbamoyl)pyridin-3-yl)pyrazolo[1,5-a]pyridine-5-carboxamide]",–,–,13,92
"CN(C(=O)c1ccn2ncc(-c3cnc(Cl)c(N)c3)c2c1)c1ccc(C#N)cn1 [Example 98, 3-(5-Amino-6-chloropyridin-3-yl)-N-(5-cyanopyridin-2-yl)-N-methylpyrazolo[1,5-a]pyridine-5-carboxamide]",–,–,19,2060
"CNC(=O)c1ccc(-c2cnn3ccc(C(=O)N(C)c4ccc(Cl)cc4)cc23)cc1 [Example 99, N-(4-Chlorophenyl)-N-methyl-3-(4-(methylcarbamoyl)phenyl)pyrazolo[1,5-a]pyridine-5-carboxamide]",–,–,1,15
"CN(C(=O)c1ccn2ncc(-c3ccc(C(N)=O)cc3)c2c1)c1ccc(Cl)cc1 [Example 100, 3-(4-Carbamoylphenyl)-N-(4-chlorophenyl)-N-methylpyrazolo[1,5-a]pyridine-5-carboxamide]",–,–,9,20
"CN(C(=O)c1ccn2ncc(-c3ccc(C(=O)NCCO)cc3)c2c1)c1ccc(C#N)cn1 [Example 102, N-(5-Cyanopyridin-2-yl)-3-(4-((2-hydroxyethyl)carbamoyl)phenyl)-N-methylpyrazolo[1,5-a]pyridine-5-carboxamide]",–,–,10,660
"CNC(=O)c1ccc(-c2cnn3ccc(C(=O)N(C)c4ccc(C(F)(F)F)cc4)cc23)cc1 [Example 103, N-Methyl-3-(4-(methylcarbamoyl)phenyl)-N-(4-(trifluoromethyl)phenyl)pyrazolo[1,5-a]pyridine-5-carboxamide]",–,–,3,62
"CN(C(=O)c1ccn2ncc(-c3ccc(C(=O)NCCN)cc3)c2c1)c1ccc(C#N)cn1 [Example 104, 3-(4-((2-Aminoethyl)carbamoyl)phenyl)-N-(5-cyanopyridin-2-yl)-N-methylpyrazolo[1,5-a]pyridine-5-carboxamide]",–,–,125,1200
"CN(C(=O)c1ccn2ncc(-c3cnc(Cl)c(NS(C)(=O)=O)c3)c2c1)c1ccc(C#N)cn1 [Example 107, 3-(6-Chloro-5-(methylsulfonamido)pyridin-3-yl)-N-(5-cyanopyridin-2-yl)-N-methylpyrazolo[1,5-a]pyridine-5-carboxamide]",–,–,10,180
"CN(C(=O)c1ccn2ncc(-c3ccnc(N)c3)c2c1)c1ccc(C#N)cn1 [Example 108, 3-(2-Aminopyridin-4-yl)-N-(5-cyanopyridin-2-yl)-N-methylpyrazolo[1,5-a]pyridine-5-carboxamide]",–,–,2470,472
"CNC(=O)c1ccc(-c2cnn3ccc(C(=O)N(C)c4ccc(Cl)cc4)cc23)cn1 [Example 109, N-(4-Chlorophenyl)-N-methyl-3-(6-(methylcarbamoyl)pyridin-3-yl)pyrazolo[1,5-a]pyridine-5-carboxamide]",–,–,19,62
"CNC(=O)c1ccc(-c2cnn3ccc(C(=O)N(CCO)c4ccc(C#N)cc4)cc23)cc1 [Example 110, N-(4-Cyanophenyl)-N-(2-hydroxyethyl)-3-(4-(methylcarbamoyl)phenyl)pyrazolo[1,5-a]pyridine-5-carboxamide]",–,–,54,253
"CNC(=O)c1ccc(-c2cnn3ccc(C(=O)N(C)c4ccc(OCCN)cn4)cc23)cc1 [Example 111, N-(5-(2-Aminoethoxyl)pyridin-2-yl)-N-methyl-3-(4-(methylcarbamoyl)phenyl)pyrazolo[1,5-a]pyridine-5-carboxamide]",–,–,6300,> 10000
"CNC(=O)c1ccc(-c2cnn3ccc(C(=O)N(c4ccc(C#N)cn4)C4CCC4)cc23)cc1 [Example 112, N-(5-Cyanopyridin-2-yl)-N-cyclobutyl-3-(4-(methylcarbamoyl)phenyl)pyrazolo[1,5-a]pyridine-5-carboxamide]",–,–,4,9
"CN(C(=O)c1ccn2ncc(-c3ccc(C(=O)NC4CCNCC4)cc3)c2c1)c1ccc(C#N)cn1 [Example 113, N-(5-Cyanopyridin-2-yl)-N-methyl-3-(4-(piperidin-4-ylcarbamoyl)phenyl)pyrazolo[1,5-a]pyridine-5-carboxamide]",–,–,311,1650
"CNCCNC(=O)c1ccc(-c2cnn3ccc(C(=O)N(C)c4ccc(C#N)cn4)cc23)cc1 [Example 114, N-(5-Cyanopyridin-2-yl)-N-methyl-3-(4-((2-(methylamino)ethyl)carbamoyl)phenyl)pyrazolo[1,5-a]pyridine-5-carboxamide]",–,–,52,950
"CN(C)CCNC(=O)c1ccc(-c2cnn3ccc(C(=O)N(C)c4ccc(C#N)cn4)cc23)cc1 [Example 115, N-(5-cyanopyridin-2-yl)-3-(4-((2-(dimethylamino)ethyl)carbamoyl)phenyl)-N-methylpyrazolo[1,5-a]pyridine-5-carboxamide]",–,–,155,79
